Test results taken from patent US20230085307A1, “PYRIDAZINONE COMPOUND AND HERBICIDE” (NISSAN CHEMICAL CORPORATION, priority 2019, published 2023).

Tests used:
velvetleaf [1] = assay: Test Example 4: herbicidal effect by soil treatment (Table 19, symbol M); type: in vivo, velvetleaf (Abutilon theophrasti); details: amount of applied herbicide 320 g/ha
Summary of the method: (§1)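 Seeds were sown in sterilized diluvial soil and covered with about 1.5 cm of soil. An emulsion formulation diluted with water to a predetermined herbicide amount was sprayed evenly onto the soil surface. Plants grew in a greenhouse at 25° C. to 30° C., and the effect was scored three weeks after application using criteria from an earlier test.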

lambsquarters [2] = assay: Test Example 4: herbicidal effect by soil treatment (Table 19, symbol O); type: in vivo, lambsquarters (Chenopodium album); details: amount of applied herbicide 320 g/ha
Summary of the method: as §1

blackgrass [3] = assay: Test Example 5: herbicidal effect by foliage application, plastic box (Table 20, symbol J); type: in vivo, blackgrass (Alopecurus myosuroides); details: 320 g/ha, foliage application after 14-day growth, evaluated three weeks after application
Summary of the method: (§2)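 Plants sown in sterilized diluvial soil and grown 14 days in a greenhouse at 25° C to 30° C, then sprayed on the foliage with the compound's emulsion diluted in water to a predetermined herbicide amount. Injury to weeds and crops scored three weeks after application on a visual rating scale.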

blackgrass [4] = assay: Test Example 4: herbicidal effect by soil treatment (Table 19, symbol J); type: in vivo, blackgrass (Alopecurus myosuroides); details: amount of applied herbicide 320 g/ha
Summary of the method: as §1

barnyard grass [5] = assay: Test Example 4: herbicidal effect by soil treatment (Table 19, symbol H); type: in vivo, barnyard grass (Echinochloa crus-galli); details: amount of applied herbicide 320 g/ha
Summary of the method: as §1

barnyard grass [6] = assay: Test Example 5: herbicidal effect by foliage application, plastic box (Table 20, symbol H); type: in vivo, barnyard grass (Echinochloa crus-galli); details: 320 g/ha, foliage application after 14-day growth, evaluated three weeks after application
Summary of the method: as §2

barnyard grass [7] = assay: Test Example 3: herbicidal effect by foliage application, Wagner pot (Table 18, symbol H); type: in vivo, barnyard grass (Echinochloa crus-galli); details: 320 g/ha
Summary of the method: (§3)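 Plants were sown in alluvial soil held under 0.1–0.5 cm standing water and grown 14 days in a greenhouse at 25–30 °C. An emulsifiable formulation, water-diluted to the set dose, was then sprayed onto the foliage, and effects were scored three weeks later using previously defined criteria.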

velvetleaf [8] = assay: Test Example 5: herbicidal effect by foliage application, plastic box (Table 20, symbol M); type: in vivo, velvetleaf (Abutilon theophrasti); details: 320 g/ha, foliage application after 14-day growth, evaluated three weeks after application
Summary of the method: as §2

redroot pigweed [9] = assay: Test Example 5: herbicidal effect by foliage application, plastic box (Table 20, symbol N); type: in vivo, redroot pigweed (Amaranthus retroflexus); details: 320 g/ha, foliage application after 14-day growth, evaluated three weeks after application
Summary of the method: as §2

oval-leafed pondweed = assay: Test Example 2: herbicidal activity, application during weed generation under submerged conditions (Table 17, symbol C); type: in vivo, oval-leafed pondweed (Monochoria vaginalis); details: AAH 320 g/ha; application during weed generation, submerged conditions
Summary of the method: (§4)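 Effect on each weed is rated three weeks post-treatment, using the same scoring criteria as the preceding test. Plants grow from mixed-sown seed in flooded alluvial soil (4 cm water) at 25° C. to 30° C., and are treated at one to two leaves with diluted emulsion dropped onto the water.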

persian speedwell [10] = assay: Test Example 5: herbicidal effect by foliage application, plastic box (Table 20, symbol R); type: in vivo, Persian speedwell (Veronica persica); details: 320 g/ha, foliage application after 14-day growth, evaluated three weeks after application
Summary of the method: as §2

redroot pigweed [11] = assay: Test Example 4: herbicidal effect by soil treatment (Table 19, symbol N); type: in vivo, redroot pigweed (Amaranthus retroflexus); details: amount of applied herbicide 320 g/ha
Summary of the method: as §1

windgrass [12] = assay: Test Example 4: herbicidal effect by soil treatment (Table 19, symbol L); type: in vivo, windgrass (Apera spica-venti); details: amount of applied herbicide 320 g/ha
Summary of the method: as §1

Italian ryegrass [13] = assay: Test Example 4: herbicidal effect by soil treatment (Table 19, symbol K); type: in vivo, Italian ryegrass (Lolium multiflorum); details: amount of applied herbicide 320 g/ha
Summary of the method: as §1

southern crabgrass [14] = assay: Test Example 5: herbicidal effect by foliage application, plastic box (Table 20, symbol F); type: in vivo, southern crabgrass (Digitaria ciliaris); details: 320 g/ha, foliage application after 14-day growth, evaluated three weeks after application
Summary of the method: as §2

chickweed [15] = assay: Test Example 5: herbicidal effect by foliage application, plastic box (Table 20, symbol P); type: in vivo, common chickweed (Stellaria media); details: 320 g/ha, foliage application after 14-day growth, evaluated three weeks after application
Summary of the method: as §2

southern crabgrass [16] = assay: Test Example 4: herbicidal effect by soil treatment (Table 19, symbol F); type: in vivo, southern crabgrass (Digitaria ciliaris); details: amount of applied herbicide 320 g/ha
Summary of the method: as §1

late watergrass = assay: Test Example 2: herbicidal activity, application during weed generation under submerged conditions (Table 17, symbol A); type: in vivo, late watergrass (Echinochloa oryzicola); details: AAH 320 g/ha; application during weed generation, submerged conditions
Summary of the method: as §4

Chinese sprangletop = assay: Test Example 3: herbicidal effect by foliage application, Wagner pot (Table 18, symbol D); type: in vivo, chinese sprangletop (Leptochloa chinensis); details: 320 g/ha
Summary of the method: as §3

green foxtail [17] = assay: Test Example 5: herbicidal effect by foliage application, plastic box (Table 20, symbol G); type: in vivo, green foxtail (Setaria viridis); details: 320 g/ha, foliage application after 14-day growth, evaluated three weeks after application
Summary of the method: as §2

chickweed [18] = assay: Test Example 4: herbicidal effect by soil treatment (Table 19, symbol P); type: in vivo, common chickweed (Stellaria media); details: amount of applied herbicide 320 g/ha
Summary of the method: as §1

rice flat sedge = assay: Test Example 3: herbicidal effect by foliage application, Wagner pot (Table 18, symbol E); type: in vivo, rice flat sedge (Cyperus iria); details: 320 g/ha
Summary of the method: as §3

windgrass [19] = assay: Test Example 5: herbicidal effect by foliage application, plastic box (Table 20, symbol L); type: in vivo, windgrass (Apera spica-venti); details: 320 g/ha, foliage application after 14-day growth, evaluated three weeks after application
Summary of the method: as §2

lambsquarters [20] = assay: Test Example 5: herbicidal effect by foliage application, plastic box (Table 20, symbol O); type: in vivo, lambsquarters (Chenopodium album); details: 320 g/ha, foliage application after 14-day growth, evaluated three weeks after application
Summary of the method: as §2

wild oat [21] = assay: Test Example 4: herbicidal effect by soil treatment (Table 19, symbol I); type: in vivo, wild oat (Avena fatua); details: amount of applied herbicide 320 g/ha
Summary of the method: as §1

wild oat [22] = assay: Test Example 5: herbicidal effect by foliage application, plastic box (Table 20, symbol I); type: in vivo, wild oat (Avena fatua); details: 320 g/ha, foliage application after 14-day growth, evaluated three weeks after application
Summary of the method: as §2

Italian ryegrass [23] = assay: Test Example 5: herbicidal effect by foliage application, plastic box (Table 20, symbol K); type: in vivo, Italian ryegrass (Lolium multiflorum); details: 320 g/ha, foliage application after 14-day growth, evaluated three weeks after application
Summary of the method: as §2

Japanese bulrush = assay: Test Example 2: herbicidal activity, application during weed generation under submerged conditions (Table 17, symbol B); type: in vivo, Japanese bulrush (Schoenoplectus juncoides); details: AAH 320 g/ha; application during weed generation, submerged conditions
Summary of the method: as §4

green foxtail [24] = assay: Test Example 4: herbicidal effect by soil treatment (Table 19, symbol G); type: in vivo, green foxtail (Setaria viridis); details: amount of applied herbicide 320 g/ha
Summary of the method: as §1

persian speedwell [25] = assay: Test Example 4: herbicidal effect by soil treatment (Table 19, symbol R); type: in vivo, Persian speedwell (Veronica persica); details: amount of applied herbicide 320 g/ha
Summary of the method: as §1

With `CCCC(=O)Oc1c(C)nn(C)c(=O)c1-c1c(-c2ccccc2OC)sc2c(F)cccc12` [4-004] the “Herbicidal effect by soil treatment, M: velvetleaf” value (velvetleaf [1]) was 0 (Herbicidal rate of 5% or less (almost no effect)), the “Herbicidal effect by soil treatment, O: lambsquarters” value (lambsquarters [2]) was 3 (Herbicidal rate of 40% or more and less than 70%) and the “herbicidal effect on J: blackgrass (evaluation grade 0-5)” value (blackgrass [3]) was 0 (Herbicidal rate of 5% or less (almost no effect)). The “Herbicidal effect by soil treatment, J: blackgrass” value (blackgrass [4]) was 0 (Herbicidal rate of 5% or less (almost no effect)), the “Herbicidal effect by soil treatment, H: barnyard grass” value (barnyard grass [5]) was 1 (Herbicidal rate of 5% or more and less than 20%) and the “herbicidal effect on H: barnyard grass (evaluation grade 0-5)” value (barnyard grass [6]) was 3 (Herbicidal rate of 40% or more and less than 70%). The “herbicidal effect on barnyard grass (H)” value (barnyard grass [7]) was 4 (Herbicidal rate of 70% or more and less than 90%), the “herbicidal effect on M: velvetleaf (evaluation grade 0-5)” value (velvetleaf [8]) was 4 (Herbicidal rate of 70% or more and less than 90%) and the “herbicidal effect on N: redroot pigweed (evaluation grade 0-5)” value (redroot pigweed [9]) was 5 (Herbicidal rate of 90% or more (almost completely withered)). For the same compound, the “herbicidal effect rating, C: oval-leafed pondweed” value (oval-leafed pondweed) was 2 (Herbicidal rate of 20% or more and less than 40%), the “herbicidal effect on R: persian speedwell (evaluation grade 0-5)” value (persian speedwell [10]) was 4 (Herbicidal rate of 70% or more and less than 90%) and the “Herbicidal effect by soil treatment, N: redroot pigweed” value (redroot pigweed [11]) was 3 (Herbicidal rate of 40% or more and less than 70%). For the same compound, the “Herbicidal effect by soil treatment, L: windgrass” value (windgrass [12]) was 0 (Herbicidal rate of 5% or less (almost no effect)), the “Herbicidal effect by soil treatment, K: Italian ryegrass” value (Italian ryegrass [13]) was 0 (Herbicidal rate of 5% or less (almost no effect)) and the “herbicidal effect on F: southern crabgrass (evaluation grade 0-5)” value (southern crabgrass [14]) was 3 (Herbicidal rate of 40% or more and less than 70%). The “herbicidal effect on P: chickweed (evaluation grade 0-5)” value (chickweed [15]) was 5 (Herbicidal rate of 90% or more (almost completely withered)), the “Herbicidal effect by soil treatment, F: southern crabgrass” value (southern crabgrass [16]) was 0 (Herbicidal rate of 5% or less (almost no effect)) and the “herbicidal effect rating, A: late watergrass” value (late watergrass) was 3 (Herbicidal rate of 40% or more and less than 70%). For the same compound, the “herbicidal effect on Chinese sprangletop (D)” value (Chinese sprangletop) was 3 (Herbicidal rate of 40% or more and less than 70%), the “herbicidal effect on G: green foxtail (evaluation grade 0-5)” value (green foxtail [17]) was 4 (Herbicidal rate of 70% or more and less than 90%) and the “Herbicidal effect by soil treatment, P: chickweed” value (chickweed [18]) was 1 (Herbicidal rate of 5% or more and less than 20%). The “herbicidal effect on rice flat sedge (E)” value (rice flat sedge) was 4 (Herbicidal rate of 70% or more and less than 90%), the “herbicidal effect on L: windgrass (evaluation grade 0-5)” value (windgrass [19]) was 0 (Herbicidal rate of 5% or less (almost no effect)) and the “herbicidal effect on O: lambsquarters (evaluation grade 0-5)” value (lambsquarters [20]) was 2 (Herbicidal rate of 20% or more and less than 40%). For the same compound, the “Herbicidal effect by soil treatment, I: wild oat” value (wild oat [21]) was 0 (Herbicidal rate of 5% or less (almost no effect)), the “herbicidal effect on I: wild oat (evaluation grade 0-5)” value (wild oat [22]) was 0 (Herbicidal rate of 5% or less (almost no effect)) and the “herbicidal effect on K: Italian ryegrass (evaluation grade 0-5)” value (Italian ryegrass [23]) was 0 (Herbicidal rate of 5% or less (almost no effect)). For the same compound, the “herbicidal effect rating, B: Japanese bulrush” value (Japanese bulrush) was 0 (Herbicidal rate of 5% or less (almost no effect)), the “Herbicidal effect by soil treatment, G: green foxtail” value (green foxtail [24]) was 0 (Herbicidal rate of 5% or less (almost no effect)) and the “Herbicidal effect by soil treatment, R: persian speedwell” value (persian speedwell [25]) was 0 (Herbicidal rate of 5% or less (almost no effect)).
